From PMC10287695, “Non-covalent inhibitors of thioredoxin glutathione reductase with schistosomicidal activity in vivo” (Nature Communications, 2023)
Read-outs that look alike come from different tables or passages of the source.

Tests used:
[1] = system: S. mansoni newly transformed schistosomula (NTS); assay: Schistosomicidal activity ex vivo, NTS (Cell Titer Glo); assay type: cell-based; conditions: for LD50 ex vivo S. mansoni NTS: 24 h exposure, Cell TiterGlo
Procedure: Oncomelania hupensis subsp. hupensis, Chinese strain, infected with S. japonicum, Chinese strain, and Biomphalaria glabrata, strain NMRI, infected with S. mansoni, strain NMRI, were provided by the NIAID Schistosomiasis Resource Center for distribution through BEI Resources, NIAID, NIH. After infections were patent, snails were exposed to bright light for 1 hr to obtain cercariae. Cercariae were mechanically transformed to schistosomula. Briefly, cercariae were placed on ice for 30 min and then centrifuged at 350 × g for 10 mins. The supernatant was decanted and 2 ml of serum-free M199 medium was added to cercarial pellets and vortexed for 1 min until cercarial tails were detached. NTS were purified by layering on 4 °C Percoll gradient suspension containing Eagle’s minimum essential medium, penicillin-streptomycin (10,000 U per ml penicillin/10,000 U per ml streptomycin), and 1 M HEPES in 0.85% NaCl with cercariae suspension and centrifuged at 500 × g for 15 min. Cercarial pellets were resuspended and washed thrice in serum-free M199 medium and collected at 100 × g for 5 min. NTS (240) were transferred to U-bottom 96 well assay plates containing 200 µl of M199 medium supplemented with 5.5 mM D-glucose, penicillin-streptomycin and 5% heat inactivated fetal bovine serum and incubated at 37 °C in a 5% CO2 incubator overnight.
DMSO formulated compounds were diluted with phenol red free M199 medium or RPMI medium for NTS or juvenile and adult worms, respectively, at <1% DMSO final concentrations. NTS, juvenile and adult worms from overnight cultures were tested against compounds in triplicate. Controls were treated with DMSO alone or 5 µM AF as a positive control in appropriate medium. Worm viability was assessed at 24 or 72 h by measuring ATP content of worms using Cell Titer Glo Assay (Promega) as described. Schistosome viabilities in the presence of the compounds were assessed using this formula: % Viability = Averages of Test / Averages of DMSO Control x 100.

[2] = system: S. mansoni adult worms; assay: GSH/GSSG ratio in ex vivo adult worms; assay type: cell-based; conditions: for Decrease (%) in GSH/GSSG ratio: adult worms, 3 h exposure to compounds at 50 μM
Procedure: We assessed GSH/GSSG levels experimentally by treating S. mansoni adult worms with 50 µM of compounds, or respective controls 5 µM Auranofin, 50 µM PZQ or 50 µM MZM and 0.01% DMSO for 3 h. Worm homogenate was prepared by washing three times with PBS to remove residual compounds and ten volumes of ice cold 5% sulfosalicylic acid was added. Worms were manually homogenized on ice using VWR Pellet Mixer Adaptor. The worm suspension was centrifuged at 14000 × g, 4 °C for 10 min and the acid supernatants transferred. An equal volume of ice-cold neutralization buffer (500 mM HEPES, pH 8.0) was added to the acid supernatants.
GSH/GSSG assay was performed by diluting the acid supernatant (5-fold) with ice-cold dilution buffer (250 mM HEPES, pH 7.5). Using white opaque luminescence plate on ice, 25 µl of the diluted worm acid supernatant was added each well in triplicates. Total glutathione lysis reagent and GSSG lysis reagent, which contains alkylating agent N-ethylmaleimide (25 mM) were prepared following manufactures protocol and added to respective wells along with blank for background. Total glutathione lysis reagent or oxidized glutathione lysis reagent (25 µl) was added to respective wells containing worm acid supernatants and the plate was shaken for 5 min. Luciferin generation reagent (LGR) (50 µl) was added to all wells, briefly shaken and incubated at room temperature for 30 min. Luciferin detection reagent (LDR) (100 µl) was added to all wells, briefly shaken and incubated for 15 min at room temperature and the luminescence measured using microplate imager (BioTek Cytation3). GSH/GSSH ratio for DMSO control and compounds were calculated using (Net DMSO total glutathione RFU) – (Net DMSO GSSG RFU)/ (Net DMSO GSSG RFU)/2 and (Net inhibitor total glutathione RFU) – (Net inhibitor GSSG RFU)/ (Net inhibitor GSSG RFU)/2 respectively.

[3] = molecular target: T1, Human GR (Homo sapiens, UniProt P00390); assay: Human GR enzyme inhibition (GSSG reduction, NADPH oxidation); assay type: biochemical; conditions: for inhibition at 15 µM / inhibition at 30 µM / inhibition at 66.7 µM: hGR, read-out: % inhibition; for inhibition at 15 µM: compound 15 µM; for inhibition at 30 µM: compound 30 µM; for inhibition at 66.7 µM: compound 66.7 µM
T1 construct: made in house
T1 sequence (P00390 44-522): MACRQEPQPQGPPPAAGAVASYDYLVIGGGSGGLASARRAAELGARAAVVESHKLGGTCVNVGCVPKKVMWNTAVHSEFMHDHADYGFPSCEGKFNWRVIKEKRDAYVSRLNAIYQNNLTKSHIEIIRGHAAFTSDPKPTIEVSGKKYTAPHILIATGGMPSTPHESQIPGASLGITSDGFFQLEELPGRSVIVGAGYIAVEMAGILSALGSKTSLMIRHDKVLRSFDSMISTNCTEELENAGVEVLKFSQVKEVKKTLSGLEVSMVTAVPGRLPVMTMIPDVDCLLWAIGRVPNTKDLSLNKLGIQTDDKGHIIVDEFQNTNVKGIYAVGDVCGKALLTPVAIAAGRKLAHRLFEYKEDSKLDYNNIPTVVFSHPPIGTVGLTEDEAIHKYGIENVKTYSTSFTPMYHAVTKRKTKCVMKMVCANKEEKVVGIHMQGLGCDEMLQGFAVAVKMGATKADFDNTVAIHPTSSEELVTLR

[4] = Schistosoma mansoni, 72 h, read-out: % viability, S. mansoni NTS
[5] = 1 hr, third data set (r147-159), 0hr 72.45
[6] = 1 hr, third data set (r147-159), 0hr = 100
[7] = 1 hr, third data set, (values given as fraction)
[8] = 3 hr, third data set (r147-159), 0hr 72.45
[9] = 3 hr, third data set (r147-159), 0hr = 100
[10] = 3 hr, third data set, (values given as fraction)
[11] = 1 hr, first data set (r117-133), baseline 55.82
[12] = 1 hr, first data set (r117-133), baseline = 100
[13] = 3 hr, first data set (r117-133), baseline 55.82
[14] = 3 hr, first data set (r117-133), baseline = 100

Row | Compound | LD50 ex vivo S. mansoni NTS [1] [µM] | LD50 NTS after 72 h exposure [1] [µM] | viability at 5 µM ([1]; Schistosoma mansoni) [%] | viability at 15 µM ([1]; Schistosoma mansoni) [%] | viability at 30 µM ([1]; Schistosoma mansoni) [%] | viability at 50 µM ([1]; Schistosoma mansoni) [%] | Reduction (%) in GSH/GSSG ratio ([2]; 1 hr, third data set) [%] | Ratio GSH/GSSG [2, 5] | % Ratio GSH/GSSG [2, 6] [%] | Reduction (%) in GSH/GSSG ratio [2, 7] [%] | Reduction (%) in GSH/GSSG ratio ([2]; 3 hr, third data set) [%] | Ratio GSH/GSSG [2, 8] | % Ratio GSH/GSSG [2, 9] [%] | Reduction (%) in GSH/GSSG ratio [2, 10] [%] | Decrease (%) in GSH/GSSG ratio [2] [%] | Human GR (inhibition at 66.7 µM) [3] | inhibition at 15 µM ([3]; 15 minutes pre-incubation) [%] | inhibition at 15 µM ([3]; 6 hours pre-incubation) [%] | Ratio GSH/GSSG [2, 11] | % Ratio GSH/GSSG [2, 12] [%] | also measured
1 | Cc1oc(-c2ccc3c(c2)OCO3)nc1CN[C@@H]1C[C@@H]2C[C@H]([C@H]1C)C2(C)C [Compound 1] | 5.9 ± 0.25 | 2.2 ± 0.19 | 52.7 | 30 | 24.6 | 17.6 | 50.9919 | 35.51 | 49.0081 | 0.5099 | 78.3034 | 15.72 | 21.6966 | 0.78 | 75 | n.i. | -1.22 | -0.519 | – | – | viability at 1 µM ([1]; Schistosoma mansoni): 89.9%; viability at 0.25 µM [1, 4]: 92.1%; viability at 1 µM [1, 4]: 71.2%; viability at 3 µM [1, 4]: 48.1%; viability at 6 µM [1, 4]: 23.4%; inhibition at 30 µM ([3]; 15 minutes pre-incubation): -0.832%; inhibition at 30 µM ([3]; 6 hours pre-incubation): -1.06%
2 | CCc1ccccc1-c1nc(CN[C@@H]2C[C@@H]3C[C@H]([C@H]2C)C3(C)C)c(C)o1 [Compound 2] | 0.6 ± 0.21 | 0.18 ± 0.007 | 0.373 | 0.0945 | 0.0764 | 0.0707 | – | – | – | – | – | – | – | – | 39 | n.i. | -0.995 | -5.17 | 34.19 | 61.2531 | viability at 1 µM ([1]; Schistosoma mansoni): 47.9%; viability at 0.125 µM [1, 4]: 65%; viability at 0.25 µM [1, 4]: 40.4%; viability at 0.5 µM [1, 4]: 3.04%; viability at 1 µM [1, 4]: 0.411%; Ratio GSH/GSSG [2, 13]: 28.99; % Ratio GSH/GSSG [2, 14]: 51.9337%; inhibition at 30 µM ([3]; 15 minutes pre-incubation): -1.9%; inhibition at 66.7 µM ([3]; 15 minutes pre-incubation): -0.827%; inhibition at 30 µM ([3]; 6 hours pre-incubation): -3.97%; inhibition at 66.7 µM ([3]; 6 hours pre-incubation): -3.29%
3 | Cc1oc(-c2ccccc2)nc1CN[C@@H]1C[C@@H]2C[C@H]([C@H]1C)C2(C)C [Compound 3] | 4.3 ± 0.20 | – | – | – | – | – | 60.3556 | 28.72 | 39.6444 | 0.60 | 70.1019 | 21.66 | 29.8981 | 0.70 | 62 | n.i. | – | – | 29.86 | 53.4928 | Ratio GSH/GSSG [2, 13]: 25.64; % Ratio GSH/GSSG [2, 14]: 45.9343%
4 | Cc1oc(C2CCCCC2)nc1CN[C@@H]1C[C@@H]2C[C@H]([C@H]1C)C2(C)C [Compound 4] | 0.85 ± 0.11 | – | – | – | – | – | – | – | – | – | – | – | – | – | 60 | n.i. | – | – | 28.16 | 50.452 | Ratio GSH/GSSG [2, 13]: 18.95; % Ratio GSH/GSSG [2, 14]: 33.9548%
5 | Cc1oc(-c2ccc3ccccc3c2)nc1CNC1CCCCCC1 [Compound 5] | 5.8 ± 0.15 | – | – | – | – | – | – | – | – | – | – | – | – | – | 56 | n.i. | – | – | – | – | % Ratio GSH/GSSG ([2]; adult worms ex vivo, 1 hr): 47.8314%; Reduction (%) in GSH/GSSG ratio ([2]; adult worms ex vivo, 1 hr, relative to 0hr): 20.3307%; % Ratio GSH/GSSG ([2]; adult worms ex vivo, 3 hr): 26.3574%; Reduction (%) in GSH/GSSG ratio ([2]; adult worms ex vivo, 3 hr, relative to 0hr): 56.0984%
6 | C#CCN(Cc1nc(-c2ccccc2)oc1C)[C@@H]1C[C@@H]2C[C@H]([C@H]1C)C2(C)C [Compound 6] | 17.5 ± 3.7 | 7.8 ± 2.36 | 81.1 | 57 | 30.8 | 26.4 | 3.259 | 70.09 | 96.7414 | 0.0326 | 8.6517 | 66.18 | 91.3483 | 0.09 | 32 | n.i. | -0.749 | -0.648 | – | – | viability at 1.25 µM [1, 4]: 86%; viability at 2.5 µM [1, 4]: 73.8%; viability at 5 µM [1, 4]: 55.5%; viability at 10 µM [1, 4]: 45.1%; inhibition at 66.7 µM ([3]; 15 minutes pre-incubation): -0.295%; inhibition at 66.7 µM ([3]; 6 hours pre-incubation): -0.21%
